The source of these data is ChEMBL document CHEMBL3886392, “Substituted imidazopyrazines” (2015).

For orientation: IC50 means the concentration that gives 50% inhibition. Read a low IC50 as greater potency in that assay.

This test has as its target T1, Dual specificity protein kinase TTK (Homo sapiens, UniProt P33981).
T1 sequence (P33981 whole entry): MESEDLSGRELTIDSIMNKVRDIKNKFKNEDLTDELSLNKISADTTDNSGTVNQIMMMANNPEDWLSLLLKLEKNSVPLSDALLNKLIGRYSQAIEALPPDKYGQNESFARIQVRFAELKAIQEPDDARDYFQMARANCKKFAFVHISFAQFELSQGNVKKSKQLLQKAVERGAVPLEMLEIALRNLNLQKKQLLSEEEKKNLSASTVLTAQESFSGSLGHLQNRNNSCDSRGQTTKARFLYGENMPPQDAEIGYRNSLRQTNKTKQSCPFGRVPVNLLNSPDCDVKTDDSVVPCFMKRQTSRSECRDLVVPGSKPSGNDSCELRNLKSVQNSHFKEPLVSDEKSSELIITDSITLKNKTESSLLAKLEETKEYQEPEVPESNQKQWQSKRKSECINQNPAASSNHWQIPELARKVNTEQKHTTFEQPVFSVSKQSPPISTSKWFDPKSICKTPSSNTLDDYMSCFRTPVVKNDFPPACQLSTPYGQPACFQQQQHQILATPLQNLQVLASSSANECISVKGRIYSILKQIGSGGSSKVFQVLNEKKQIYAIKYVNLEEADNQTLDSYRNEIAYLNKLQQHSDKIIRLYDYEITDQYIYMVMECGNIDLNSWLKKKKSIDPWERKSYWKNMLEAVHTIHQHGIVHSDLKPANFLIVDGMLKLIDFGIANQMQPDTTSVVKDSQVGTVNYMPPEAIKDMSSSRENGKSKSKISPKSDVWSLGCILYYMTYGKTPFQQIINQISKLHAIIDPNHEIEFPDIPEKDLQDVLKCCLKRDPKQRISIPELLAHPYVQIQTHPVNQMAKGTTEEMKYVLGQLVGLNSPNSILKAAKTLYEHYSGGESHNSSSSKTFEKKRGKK

Structures are written as SMILES.

For the compound `C#Cc1cn2c(-c3ccc(C(=O)NC4C[C@@H]4F)c(C)c3)cnc2c(NCCC(F)(F)F)n1` (stereo in doubt), the midpoint of inhibition, the IC50, lay at 36 nM. That is a double-digit nanomolar value.
